Experimental data from patent US8048454B2, “Methods and compositions related to regulation of cytokine production by glycogen synthase kinase 3 (GSK-3)” (priority 2004, dated 2011).
Entries after “also recorded” stand apart in the source; their conditions may differ.

Assays:
CBP = experiment: Co-immunoprecipitation of CBP with NF-κB p65 and CREB; assay type: cell-based, human; conditions: SB216763 10 μM; LPS-stimulated monocytes
Procedure: (§1) Human monocytes were pre-treated with medium only or 10 μM of SB216763 and then stimulated for the indicated time points with 1 μg/ml of E. coli LPS. The ability of E. coli LPS in the presence or absence of SB216763 to mediate the degradation and re-synthesis of (A) IκB-α and the phosphorylation of (B) NF-κB p65 (ser 276 or ser 536) were assessed by Western blot. […] The interaction of CBP with (F) NF-κB p65 and (G) CREB after treatment of cells with SB216763 (10 μM) were assessed by immunoprecipitation of CBP and probed for (F) NF-κB or (G) CREB levels by immunoblot. (H) To determine the functional effect of GSK-3 regulating CREB activity in LPS-stimulated monocytes, cells were pre-treated for 96 h with medium only, siRNA targeting CREB, or control siRNA and assayed by Western blot for the levels of CREB and total p38. […]
Moreover, it has been shown that GSK-3 can negatively regulate the activation and nuclear binding properties of CREB. Therefore, it was next determined how GSK-3 inhibition was regulating the ability of nuclear CREB (ser133) to bind its consensus sequence (FIG. 9E). […] Since the levels of CREB binding activity were augmented by GSK-3 inhibition, it was determined if GSK-3 inhibition was affecting the ability of CREB (ser133) and NF-κ p65 (ser276) to associate with CBP by co-immunoprecipitation (FIG. 9F, G).

[1] = test system: NF-κB p50, NF-κB p65, CREB; experiment: Nuclear NF-κB p50, NF-κB p65 and CREB binding activity (TransAM kit); assay type: cell-based, human; conditions: SB216763 pre-treatment 1 h; LPS; vs LPS alone
Procedure: Human monocytes were pre-treated with medium only or 10 μM of SB216763 and then stimulated for the indicated time points with 1 μg/ml of E. coli LPS. The ability of E. coli LPS in the presence or absence of SB216763 to mediate the degradation and re-synthesis of (A) IκB-α and the phosphorylation of (B) NF-κB p65 (ser 276 or ser 536) were assessed by Western blot. […] The interaction of CBP with (F) NF-κB p65 and (G) CREB after treatment of cells with SB216763 (10 μM) were assessed by immunoprecipitation of CBP and probed for (F) NF-κB or (G) CREB levels by immunoblot. (H) To determine the functional effect of GSK-3 regulating CREB activity in LPS-stimulated monocytes, cells were pre-treated for 96 h with medium only, siRNA targeting CREB, or control siRNA and assayed by Western blot for the levels of CREB and total p38. (I, J) Monocytes pre-treated with medium only, siRNA control, or siRNA targeting CREB for 96 h were stimulated with E. coli LPS for 20 h and cell-free supernatants assayed by ELISA for the levels of (I) IL-10 and (J) IL-12 p40. To ensure equal protein loading, immunoblots were striped and re-probed with total p38 (A, B, H) or total CBP (F, G). For nuclear extract analysis of (C) NF-κB p65, (D) NF-κB p50, and (E) CREB, optical density values were normalized by loading a standardized amount of protein, as indicated in the figure. * indicates statistical significance at P<0.05. For A, B, E, F, G, H, and I, results are representative of 3 separate experiments. For C and D, results represent the mean±SD of 3 separate experiments.
Human monocytes in 24-well polystyrene tissue culture plates were pretreated for 1 h with SB216763 or 0.01% DMSO and then incubated with medium alone or LPS for the indicated time points. Cells were collected, washed two times in PBS, and then assayed for activity using the TransAM kit specific for the given transcription factor (Active Motif, Carlsbad, Calif.). […]

C57BL/6 mice [2] = experiment: In vivo cytokine production in LPS-challenged mice (plasma ELISA); set-up: species or system mouse; conditions: SB216763 2 h before 150 μg LPS i.p.
Procedure: SB216763-treated mice were given 1 ml of PBS containing 30 μM of SB216763. Sham-injected and LPS groups were given 1 ml of PBS containing vehicle (0.01% DMSO). After 2 h, mice pre-treated with SB216763 (denoted LPS+SB216763) or vehicle (denoted LPS group) were given 150 μg of LPS by i.p., injection. *** indicates statistically significant differences at P<0.001, as compared to LPS-treated group. Results represent the mean±SD of 10 mice/group.
(§2) C57BL/6 mice were bred and maintained within the pathogen-free animal facility at UAB. Experimental endotoxic shock was induced in age- and sex-matched C57BL/6 mice (18 to 23 g) by intraperitoneal injection of 150 μg of LPS in PBS containing 0.1% DMSO. Mice pre-treated with the GSK-3 inhibitor SB216763 received 1 ml of PBS containing 30 μM of SB216763 (DMSO was at 0.01%) by i.p. injection. LPS-control and sham-injected mice were pre-treated (i.p. injection) with 1 ml of PBS containing 0.1% DMSO. Mice given the GSK-3 inhibitor SB216763 after LPS challenge received 1 ml of PBS containing 30 μM of SB216763 (DMSO was at 0.01%) by i.p. injection. LPS-control and sham-injected mice were administered (i.p.) 1 ml of PBS containing 0.01% DMSO. At 4 h after injection, blood from all groups of mice was obtained by retro-orbital plexus bleeding.
Human or mouse IL-1β, IL-10, IL-12 p40, and IFN-γ levels in the plasma of mice or cell-culture supernatants were determined by using enzyme-linked immunosorbent assay (ELISA) kits from R&D systems or Ebioscience according to manufacturer's instructions.

C57BL/6 mice [3] = experiment: Endotoxin shock model, survival after LD100 of LPS; assay type: in vivo, mouse
Procedure: Mice (sham-injected and LPS groups) were pre-treated with i.p. injection of 1 ml PBS containing 0.01% DMSO (vehicle control). SB216763-treated mice were administered 1 ml of PBS containing 30 μM of SB216763. After 2 h, mice pre-treated with SB216763 (denoted LPS+SB216763) or vehicle (denoted LPS group) were given 150 μg of LPS by i.p., injection. ** and *** indicate statistically significant differences at P<0.01 and P<0.001, respectively, as compared to LPS-treated group. Results represent the mean of 30 mice/group.
as §2
Male C57BL/6 mice (8 to 12 weeks of age; 18 to 23 g) were injected via the intraperitoneal route with an LD100 ([…]) of E. coli K235 LPS in 200 µl of PBS containing 0.1% DMSO. Mice were monitored over a 10 day period for survivability.

human monocytes = experiment: Cytokine production by E. coli LPS-stimulated monocytes (ELISA); assay type: cell-based
Procedure: FIG. 2 The ability of the PI3K pathway to differentially modulate the levels of pro- and anti-inflammatory cytokines is mediated by inhibition of GSK-3. Human monocytes were pre-incubated with medium only, 10 μM SB216763, 10 mM LiCl, 200 nM Azakenpaullone, BIO (50 nM), 1 μM Akt-i, or 20 μM LY294002 for 1 h and then stimulated with 1 μg/ml of E. coli LPS for 20 h. Cell-free supernatants were collected and assessed for (A, C) IL-10, (B, D) IL-12 p40, (E) TNF-α, or (F) IL-6 production by ELISA. * and *** indicates significant differences (P<0.05 and P<0.001, respectively) compared to E. coli LPS stimulated cultures. Results represent the mean±SD of 5 separate experiments.
(A) Monocytes were pre-treated for 96 h with medium, siRNA targeting GSK-3β, or control siRNA and assayed by Western blot for the levels of total GSK-3β and total p38. (B, C) Monocytes were pre-treated with medium only, siRNA control, or siRNA targeting GSK-3β for 96 h, stimulated with E. coli LPS for 20 h, and cell-free supernatants assayed by ELISA for the levels of (B) IL-10 and (C) IL-12 p40. * indicates significant differences (P<0.05) compared to LPS stimulated cultures. Results represent the mean±SD of 3 separate experiments.
as §1, with “p38. (I, J) Monocytes pre-treated with medium only, siRNA control, or siRNA targeting CREB for 96 h were stimulated with E. coli LPS for 20 h and cell-free supernatants assayed by ELISA for the levels of (I) IL-10 and (J) IL-12 p40. To ensure equal protein loading, immunoblots were striped and re-probed with total p38 (A, B, H) or total CBP (F, G).” for “p38.”
Human or mouse IL-1β, IL-10, IL-12 p40, and IFN-γ levels in the plasma of mice or cell-culture supernatants were determined by using enzyme-linked immunosorbent assay (ELISA) kits from R&D systems or Ebioscience according to manufacturer's instructions. […]

NF-κB = experiment: IκB-α degradation and NF-κB p65 phosphorylation, Western blot, LPS-stimulated monocytes; assay type: cell-based, human; conditions: 10 μM SB216763, 1 μg/ml E. coli LPS
Procedure: Human monocytes were pre-treated with medium only or 10 μM of SB216763 and then stimulated for the indicated time points with 1 μg/ml of E. coli LPS. The ability of E. coli LPS in the presence or absence of SB216763 to mediate the degradation and re-synthesis of (A) IκB-α and the phosphorylation of (B) NF-κB p65 (ser 276 or ser 536) were assessed by Western blot. […] The interaction of CBP with (F) NF-κB p65 and (G) CREB after treatment of cells with SB216763 (10 μM) were assessed by immunoprecipitation of CBP and probed for (F) NF-κB or (G) CREB levels by immunoblot. […]
To investigate the underlying cellular mechanism responsible for the ability of GSK-3 inhibition to suppress the production of pro-inflammatory cytokines while concurrently augmenting the production of the anti-inflammatory cytokine IL-10, the ability of how GSK-3 influenced the activation of downstream transcription factors involved in the inflammatory response was assessed. […] Since GSK-3 can mediate the phosphorylation of the p65 subunit of NF-κB, it was next determined if GSK-3 inhibition was exerting an effect on the phosphorylation status of the p65 subunit of NF-κB. […] Therefore, the nuclear levels of the NF-κB subunits p50 and p65 were analyzed in the presence or absence of the GSK-3 inhibitor SB216763 (FIG. 9C, D). […]

human CD4+ T cells = experiment: Cytokine production by anti-CD3 stimulated purified CD4+ T cells (ELISA); assay type: cell-based; conditions: plate-bound anti-CD3 10 μg/ml, 72 h
Procedure: Supernatants were analyzed for […] (IFN-γ) and Th2- (IL-10) type cytokines by ELISA. […] Thus, inhibition of GSK-3 at the T cell level also suppresses inflammatory cytokines while increasing anti-inflammatory cytokine production. Moreover, inhibition of GSK-3 can enhance Th2-type immune responses while suppressing Th1-type responses.

Structure (SMILES): Cn1cc(C2=C(c3ccc(Cl)cc3Cl)C(=O)NC2=O)c2ccccc21 [SB216763]
- levels of CREB bound to CBP (CBP): potently augmented
- levels of p65 associated with CBP (CBP): pronounced decrease
- DNA-binding properties of CREB [1]: significant increase
- nuclear levels of NF-κB p50 able to bind its consensus sequence [1]: did not appear to be influenced
- nuclear levels of NF-κB p65 able to bind its consensus sequence [1]: did not appear to be influenced
- reduction of systemic levels of several pro-inflammatory cytokines (C57BL/6 mice [2]; IL-1β, IL-12 p40, IFN-γ, vs LPS-treated controls): more than 50%
- in vivo (systemic) levels of IL-1β, IL-12 and IFN-γ (in words) (C57BL/6 mice [2]): suppresses; also recorded: profound decrease
- in vivo levels of IL-10 (in words) (C57BL/6 mice [2]): enhanced
- increase of in vivo production of IL-10 (C57BL/6 mice [2]; vs LPS-treated controls): more than 2 fold
- LPS (endotoxin) lethality (in words) (C57BL/6 mice [3]; given 2 h before or 2 h after LD100 of LPS): mediates protection; also recorded: severe attenuation
- mice survived (C57BL/6 mice [3]; given 2 hours after LD100 of LPS, 1 ml PBS with 30 μM i.p., 0% in control-treated mice): approximately 55%
- mice protected from death (C57BL/6 mice [3]; given 2 hours before LD100 of LPS, 1 ml PBS with 30 μM i.p., 0% in control-treated mice): greater than 70%
- late deaths among survivors (C57BL/6 mice [3]; monitored over a 10-day period, both treatment groups): no late deaths
- IL-10 levels compared to E. coli LPS-treated monocytes (in words) (human monocytes; inhibitor pre-incubation 1 h, 1 μg/ml E. coli LPS 20 h): approximate three-fold increase
- reduction in IL-12 p40 levels (human monocytes; inhibitor pre-incubation 1 h, 1 μg/ml E. coli LPS 20 h, vs LPS alone): ~80%
- level of IL-12 p40 in cultures pre-treated with siRNA against CREB (in words) (human monocytes; siRNA against CREB 96 h plus SB216763, LPS): did not appear to be altered
- IL-10 levels in cells pretreated with siRNA targeting CREB (in words) (human monocytes; siRNA targeting CREB 96 h plus SB216763, LPS, vs LPS stimulated controls): did not exhibit any discernible increase
- rate or extent of degradation or re-synthesis of IκB-α protein (NF-κB): failed to alter
- level and duration of p65 phosphorylation (ser276 or ser536) (NF-κB; vs LPS alone): Neither the level nor duration
- levels of IL-10 (human CD4+ T cells): significantly enhanced
- production of IFN-γ (human CD4+ T cells): suppress
